In general, EC50 refers to the concentration at which the effect is half-maximal. High values mean weaker potency, low ones greater potency.

This assay deals with Nrf2 transcriptional activity (pARE-Luc reporter) in HepG2 cells. Nature of the assay: In vitro Nrf2 transcriptional activity measurement by ARE-dependent reporter assay in HepG2 cell. The conditions noted are these: Homo sapiens; HepG2 cells transfected with pARE-Luc, 4 hours at 37° C.; luciferase activity of Example 1-54 or Example 17-23 at 3.75 μM defined as 100%. It counts as cell-based, human. In short, it runs like this: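 Luminescence readout (Bright-Glo) after 4 h, 37° C compound exposure of HepG2 cells carrying the ARE-luciferase vector pGL4.37. Each well converted to % response versus reference compound at 3.75 μM, and EC50 derived from dose-response curves.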
(A reporter such as luciferase makes a cellular process visible.)
With `CCOc1cc(Cl)c(C(=O)N2COc3c(cccc3-c3cc(N4C5CCC4COC5)c(C(=O)O)cc3F)C2)c(Cl)c1` [Compound 4-39, 4-[3-(2,6-Dichloro-4-ethoxybenzoyl)-2,4-dihydro-1,3-benzoxazin-8-yl]-5-fluoro-2-(3-oxa-8-azabicyclo[3.2.1]octan-8-yl)benzoic acid], the EC50 came to 6.9 nM. This lies in the single-digit nanomolar range. To `COc1cc(Cl)c(C(=O)N2COc3c(cccc3-c3cc(N4C5CCC4COC5)c(C(=O)O)cc3F)C2)c(Cl)c1` [Compound 4-40, 4-[3-(2,6-Dichloro-4-methoxybenzoyl)-2,4-dihydro-1,3-benzoxazin-8-yl]-5-fluoro-2-(3-oxa-8-azabicyclo[3.2.1]octan-8-yl)benzoic acid] belongs 8.9 nM; to `O=C(O)c1cc(F)c(-c2cccc3c2OCN(C(=O)c2c(Cl)cc(OCC4CCOCC4)cc2Cl)C3)cc1N1C2CCC1COC2` [Compound 4-41, 4-[3-[2,6-Dichloro-4-(oxan-4-ylmethoxy)benzoyl]-2,4-dihydro-1,3-benzoxazin-8-yl]-5-fluoro-2-(3-oxa-8-azabicyclo[3.2.1]octan-8-yl)benzoic acid], 4.7 nM; to `O=C(O)c1cc(F)c(-c2cccc3c2OCN(C(=O)c2c(Cl)cc(OC[C@@H]4COCCO4)cc2Cl)C3)cc1N1C2CCC1COC2` [Compound 4-42, 4-[3-[2,6-Dichloro-4-[[(2S)-1,4-dioxan-2-yl]methoxy]benzoyl]-2,4-dihydro-1,3-benzoxazin-8-yl]-5-fluoro-2-(3-oxa-8-azabicyclo[3.2.1]octan-8-yl)benzoic acid], 4.4 nM. The same measure for `O=C(O)c1ccc(-c2cccc3c2OCN(C(=O)c2c(Cl)cc(OCCCCO)cc2Cl)C3)cc1N1CCOCC1` [Compound 4-43, 4-[3-[2,6-Dichloro-4-(4-hydroxybutoxy)benzoyl]-2,4-dihydro-1,3-benoxazin-8-yl]-2-morpholin-4-ylbenzoic acid]: 7.4 nM. To `CN(C)CCOc1cc(Cl)c(C(=O)N2COc3c(cccc3-c3ccc(C(=O)O)c(N4CCOCC4)c3)C2)c(Cl)c1` [Compound 4-44, 4-[3-[2,6-Dichloro-4-[2-(dimethylamino)ethoxy]benzoyl]-2,4-dihydro-1,3-benzoxazin-8-yl]-2-morpholin-4-ylbenzoic acid] belongs 16 nM; to `CC(C)(O)CCOc1cc(Cl)c(C(=O)N2COc3c(cccc3-c3ccc(C(=O)O)c(N4CCOCC4)c3)C2)c(Cl)c1` [Compound 4-45, 4-[3-[2,6-Dichloro-4-(3-hydroxy-3-methylbutoxy)benzoyl]-2,4-dihydro-1,3-benzoxazin-8-yl]-2-morpholin-4-ylbenzoic acid], 10 nM; to `Cn1cc(Oc2cc(Cl)c(C(=O)N3COc4c(cccc4-c4cc(N5CCOCC5)c(C(=O)O)cc4F)C3)c(Cl)c2)cn1` [Compound 4-46, 4-[3-[2,6-Dichloro-4-(1-methylpyrazol-4-yl)oxybenzoyl]-2,4-dihydro-1,3-benzoxazin-8-yl]-5-fluoro-2-morpholin-4-ylbenzoic acid], 14 nM. `COCCN1CCC(Oc2cc(Cl)c(C(=O)N3COc4c(cccc4-c4cc(N5CCOCC5)c(C(=O)O)cc4F)C3)c(Cl)c2)CC1` [Compound 4-47, 4-[3-[2,6-Dichloro-4-[1-(2-methoxyethyl)piperidin-4-yl]oxybenzoyl]-2,4-dihydro-1,3-benzoxazin-8-yl]-5-fluoro-2-morpholin-4-ylbenzoic acid]: a half-maximal effect (EC50) was put at 3.3 nM. Turning to `CN1CCC(COc2cc(Cl)c(C(=O)N3COc4c(cccc4-c4cc(N5CCOCC5)c(C(=O)O)cc4F)C3)c(Cl)c2)CC1` [Compound 4-48, 4-[3-[2,6-Dichloro-4-[(1-methylpiperidin-4-yl)methoxy]benzoyl]-2,4-dihydro-1,3-benzoxazin-8-yl]-5-fluoro-2-morpholin-4-ylbenzoic acid], it took 2.6 nM to reach a half-maximal effect (EC50). The same measure for `O=C(O)c1cc(F)c(-c2cccc3c2OCN(C(=O)c2c(Cl)cc(OCCCN4CCOCC4)cc2Cl)C3)cc1N1CCOCC1` [Compound 4-49, 4-[3-[2,6-Dichloro-4-(3-morpholin-4-ylpropoxy)benzoyl]-2,4-dihydro-1,3-benzoxazin-8-yl]-5-fluoro-2-morpholin-4-ylbenzoic acid]: 1.2 nM; for `CN1CC[C@@H](Oc2cc(Cl)c(C(=O)N3COc4c(cccc4-c4cc(N5CCOCC5)c(C(=O)O)cc4F)C3)c(Cl)c2)C1` [Compound 4-50, 4-[3-[2,6-Dichloro-4-[(3R)-1-methylpyrrolidin-3-yl]oxybenzoyl]-2,4-dihydro-1,3-benzoxazin-8-yl]-5-fluoro-2-morpholin-4-ylbenzoic acid]: 2.8 nM; for `O=C(O)c1cc(F)c(-c2cccc3c2OCN(C(=O)c2c(Cl)cc(OCCCCO)cc2Cl)C3)cc1N1CCOCC1` [Compound 4-51, 4-[3-[2,6-Dichloro-4-(4-hydroxybutoxy)benzoyl]-2,4-dihydro-1,3-benzoxazin-8-yl]-5-fluoro-2-morpholin-4-ylbenzoic acid]: 2.6 nM. The same measure for `CN1CCC(Oc2cc(Cl)c(C(=O)N3COc4c(cccc4-c4cc(N5CCOCC5)c(C(=O)O)cc4F)C3)c(Cl)c2)CC1` [Compound 4-52, 4-[3-[2,6-Dichloro-4-(1-methylpiperidin-4-yl)oxybenzoyl]-2,4-dihydro-1,3-benzoxazin-8-yl]-5-fluoro-2-morpholin-4-ylbenzoic acid]: 1.1 nM; for `CN1CCCC(Oc2cc(Cl)c(C(=O)N3COc4c(cccc4-c4cc(N5CCOCC5)c(C(=O)O)cc4F)C3)c(Cl)c2)C1` (stereo not shown) [Compound 4-53, 4-[3-[2,6-Dichloro-4-(1-methylpiperidin-3-yl)oxybenzoyl]-2,4-dihydro-1,3-benzoxazin-8-yl]-5-fluoro-2-morpholin-4-ylbenzoic acid]: 2.9 nM. As to `CCOc1cc(Cl)c(C(=O)N2COc3c(cccc3-c3cc(N4CCOCC4)c(C(=O)O)cc3F)C2)cc1OC` [Compound 4-54, 4-[3-(2-Chloro-4-ethoxy-5-methoxybenzoyl)-2,4-dihydro-1,3-benzoxazin-8-yl]-5-fluoro-2-morpholin-4-ylbenzoic acid], the EC50 came out at 1.2 nM. To `COCCOc1cc(Cl)c(C(=O)N2COc3c(cccc3-c3cc(N4CCOCC4)c(C(=O)O)cc3F)C2)cc1OC` [Compound 4-55, 4-[3-[2-Chloro-5-methoxy-4-(2-methoxyethoxy)benzoyl]-2,4-dihydro-1,3-benzoxazin-8-yl]-5-fluoro-2-morpholin-4-ylbenzoic acid] belongs 2 nM; to `COC1CC2(C1)CN(c1cc(Cl)c(C(=O)N3COc4c(cccc4-c4cc(N5CC6CCC(C5)O6)c(C(=O)O)cc4F)C3)c(Cl)c1)C2` [Compound 4-56, 4-[3-[2,6-Dichloro-4-(6-methoxy-2-azaspiro[3.3]heptan-2-yl)benzoyl]-2,4-dihydro-1,3-benzoxazin-8-yl]-5-fluoro-2-(8-oxa-3-azabicyclo[3.2.1]octan-3-yl)benzoic acid], 1.9 nM; to `CC1(N2CCN(c3cc(Cl)c(C(=O)N4COc5c(cccc5-c5cc(N6CCOCC6)c(C(=O)O)cc5F)C4)c(Cl)c3)CC2)COC1` [Compound 4-57, 4-[3-[2,6-Dichloro-4-[4-(3-methyloxetan-3-yl)piperazin-1-yl]benzoyl]-2,4-dihydro-1,3-benzoxazin-8-yl]-5-fluoro-2-morpholin-4-ylbenzoic acid], 4.8 nM.

The values above are taken from patent publication US20250171457A1, “NITROGEN-CONTAINING HETEROCYCLIC COMPOUND HAVING NRF2 ACTIVATION EFFECT” (CHUGAI SEIYAKU KABUSHIKI KAISHA, priority 2022, published 2025).
